Data published in article PMC6591177, “Small Molecule IL-36γ Antagonist as a Novel Therapeutic Approach for Plaque Psoriasis” (Scientific Reports, 2019).
“Also recorded” adds a separate entry of the source.

Legend:
human IL-36γ = target: T1, human IL-36γ (Homo sapiens, UniProt Q9NZH8); experiment: Thermal shift assay, human IL-36γ; assay type: binding; conditions: 100 μM compound; read-out: increase of melting temperature of human IL-36γ
T1 construct: His6-SUMO-human IL-36γ (18–169); His6-SUMO (N, cleaved yes); made in house; host or cells: E. coli BL21 (DE3)
T1 sequence (Q9NZH8 18-169): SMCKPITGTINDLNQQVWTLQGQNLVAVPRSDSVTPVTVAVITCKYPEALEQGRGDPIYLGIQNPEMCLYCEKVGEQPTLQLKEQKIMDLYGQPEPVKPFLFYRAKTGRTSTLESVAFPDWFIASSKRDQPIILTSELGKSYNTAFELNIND
Description: (§1) Thermal shift assays[30] were performed on a Roche LightCycler 480 instrument using Sypro Orange Dye (Invitrogen). Reactions consisted of 0.5–2 µM purified recombinant protein in PBS, pH 7.4, a 1/500 dilution of the stock Sypro Orange reagent, and 100 µM test compounds, resulting in a final DMSO concentration of 1%. The samples were heated from 20 °C to 95 °C at a rate of 0.25 °C per second.

[1] = Drug plasma levels / oral exposure in mice; conditions: mouse, in vivo
[2] = tested on: 3D human skin equivalents; experiment: IL-36γ induced 3D skin equivalent model; assay type: cell-based
Description: Hematoxylin & eosin (H&E) staining and immunohistochemistry (IHC) were performed using a Leica ST5010 autostainer or Leica Bond RX automated immunostainer. Standardized IHC protocols were used for anti-loricrin staining (Abcam AB85679). Stained tissue slides were digitized for image analysis using a Perkin Elmer P250 whole slide digital pathology slide scanner with 20X objective and extended focus scanning parameters. For quantitative analysis, N = 3 raft samples were analyzed per condition for each stain using whole slide digital analysis software (Indica Labs HALO). Staining was normalized to the length of the raft sample analyzed.
3D skin equivalents (SOR-300-FT-CTR) comprised of human neonatal keratinocytes and fibroblasts were purchased from MatTek, equilibrated for one day in proprietary formulated media (SOR-300-FT-CTR-MM) and then treated as indicated. Treatment groups contained hIL-36γ at 300 ng/mL, 10 μM of A-552, 10 μg/mL anti-IL36R antibody, 10 μg/mL IL-36RA, or 10 μg/mL IgG isotype control either alone or in combination with hIL-36γ. Control skin equivalents were treated with media only. Skin equivalents were treated for three days, with media collected for cytokine release studies at day two and replaced with fresh treatment media. After three days the skin equivalents were either placed in 10% neutral buffered formalin solution (for histology) or frozen (for qRT-PCR).
To measure IL-6, IL-8 and CXCL1 release from 3D skin equivalents diluted sample media collected at day 2 of the treatment (see above) was used in conjunction with V-PLEX multiplex immunoassay for IL-6 and IL-8 and a U-PLEX immunoassay for CXCL1 (Meso Scale Discovery) according to the manufacturers’ protocols.
RNA from frozen 3D skin equivalents was isolated using miRNeasy Mini Kit (Qiagen) per the manufacturers’ instructions. For qRT-PCR determination a CFX384 Real-Time System C1000 Touch Thermocycler was used. […] Each transcript measured was presented as a fold change compared to control using the ∆∆CT method as RNA fold increase where RPLP0 was used as a housekeeping gene.

[3] = tested on: IL-36γ evoked CXCL1 release from Mouse NIH-3T3 cells; experiment: IL-36γ evoked CXCL1 release, mouse NIH-3T3 cells; assay type: cell-based; conditions: human IL-36γ evoked CXCL1 release, ± S.D.
Description: (§2) The immortalized human keratinocyte cell line HaCaT and mouse fibroblast NIH-3T3 cell line were maintained in culture in DMEM with 10% fetal bovine serum and 1% penicillin/streptomycin added (Sigma). Cells were seeded in 96-well tissue culture plates (Corning) at 25,000 cells per well and allowed to adhere and recover overnight at 37 °C in an incubator. Cells were rinsed with PBS (Sigma) and treated with cytokines diluted in 200 μL/well of the medium (DMEM with 0.5% FBS and 1% penicillin/streptomycin) as indicated. In inhibition mode, the agonist concentration used was at the EC80 for chemokine production and the cells were pre-treated with inhibitors for 30 min prior to adding the agonist. After 24 h of treatment, supernatants were collected and IL-8 and CXCL1[28] levels were assessed using a custom immunoassay (Meso Scale Discovery). EC50/IC50 values were estimated from a four-parameter logistic fit using Prism software (GraphPad).

[4] = tested on: human IL-36γ induced plasma CXCL1; experiment: hIL-36γ induced CXCL1 release in mouse plasma; assay type: in vivo; conditions: C57BL/6 mice, compounds 10, 30 and 100 mg/kg p.o.; antibody i.p.
Text: Female C57BL/6 mice (9–10 weeks old, 19–23 g) were purchased from Charles River Laboratories. All animal procedures were approved by AbbVie’s Institutional Animal Care and Use Committee (IACUC) and performed in accordance with the relevant IACUC guidelines and regulations. To examine engagement of human IL-36γ with antagonists under in vivo conditions, a mouse acute CXCL1 release assay was established which was similar to one previously reported. Plasma CXCL1 secretion was induced by subcutaneous injection of 2 μg human IL-36γ (in 100 μL PBS) into C57BL/6 mice. Blood was withdrawn via cardiac puncture 2 h after the challenge with IL-36γ. A-552 and A-553 were dosed at 10, 30 and 100 mg/kg p.o. 45 min before IL-36γ challenge. Anti-IL36R antibodies were dosed i.p. at 24 hours before IL-36γ challenge. Plasma CXCL1 levels were analyzed using MSD V-PLEX kit.

[5] = tested on: human IL-36γ evoked CXCL1 release from Human HaCaT cells; experiment: human IL-36γ evoked CXCL1 release, human HaCaT cells; assay type: cell-based; conditions: ± S.D.
Description: as §2

human IL-36α = target: T2, human IL-36α (Homo sapiens, UniProt Q9UHA7); experiment: Thermal shift assay / affinity, human IL-36α; assay type: binding; conditions: thermal shift assay at 100 μM (Supplementary Fig. 4)
T2 construct: using recombinant truncated proteins
T2 sequence (Q9UHA7 6-158): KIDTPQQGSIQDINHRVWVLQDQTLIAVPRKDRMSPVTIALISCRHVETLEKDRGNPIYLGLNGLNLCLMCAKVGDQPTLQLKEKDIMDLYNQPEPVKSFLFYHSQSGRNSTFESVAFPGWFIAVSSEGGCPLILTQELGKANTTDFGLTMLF
Description: as §1

In the case of `COC(c1ccccc1)(c1ccccc1)[C@H](Oc1nc(C)cc(-c2ccc(C)c(N)c2)n1)C(=O)O` [Compound A-552], the ΔTm at 100 µM (human IL-36γ) is reported as 6.1 °C, the oral bioavailability [1] is reported as “orally bioavailable” and the “effect on hIL-36γ induced changes in morphology, gene expression and cytokine production” value ([2]; 0.3 μg/mL hIL-36γ, 10 μM A-552, 10 μg/mL antibody or IL-36Ra, three days) is reported as “attenuated”. The “effect on 3D human skin equivalents when treated alone” value ([2]; without hIL-36γ) was “no appreciable effect”, the Ki [3] was 54 ± 10 nM and the “effect on hIL-36γ induced plasma CXCL1 release (in words)” value [4] was “robustly attenuated CXCL1 levels in plasma in a dose-dependent manner”. The Ki [5] was 31 ± 22 nM and the “binding / affinity to human IL-36α” value (human IL-36α) was “do not bind; also recorded: does not show affinity”.
